Laboratory results from patent US11358949B2, “Carbamate and urea compounds as multikinase inhibitors” (ANGEX PHARMACEUTICAL, INC., priority 2017, dated 2022).
pIC50: −log10 of the molar value.

Legend:
[1] = biological target: c-MET (Homo sapiens, UniProt P08581); assay: HotSpot Kinase Assay, c-MET
Protocol: (§1) Specifically, for each reaction, kinase and substrate were mixed in a pH 7.5 buffer containing 20 mM HEPES, 10 mM MgCl2, 1 mM EGTA [Ethylene glycol-bis(2-aminoethylether)-N,N,N′,N′-tetraacetic acid], 0.02% Brij35, 0.02 mg/mL BSA (Bovine Serum Albumin), 0.1 mM Na3VO4, 2 mM DTT, and 1% DMSO. Compounds were then added to each reaction mixture. After a 20-min incubation, ATP (Sigma-Aldrich) and [γ-^33P] ATP (PerkinElmer) were added at a final total concentration of 100 μM. Reactions were carried out at room temperature for 2 hours and spotted onto P81 ion exchange cellulose chromatography paper (Whatman). […] The percent remaining kinase activity relative to a vehicle-containing (DMSO) kinase reaction was calculated for each kinase/inhibitor pair. […] IC50 values were calculated using Prism 5 (GraphPad).

[2] = biological target: EPHA2 (Homo sapiens, UniProt P29317); assay: HotSpot Kinase Assay, EPHA2
Protocol: as §1

[3] = biological target: T1, c-MER (Homo sapiens, UniProt Q12866); assay: HotSpot Kinase Assay, c-MER
T1 sequence (Q12866 21-999): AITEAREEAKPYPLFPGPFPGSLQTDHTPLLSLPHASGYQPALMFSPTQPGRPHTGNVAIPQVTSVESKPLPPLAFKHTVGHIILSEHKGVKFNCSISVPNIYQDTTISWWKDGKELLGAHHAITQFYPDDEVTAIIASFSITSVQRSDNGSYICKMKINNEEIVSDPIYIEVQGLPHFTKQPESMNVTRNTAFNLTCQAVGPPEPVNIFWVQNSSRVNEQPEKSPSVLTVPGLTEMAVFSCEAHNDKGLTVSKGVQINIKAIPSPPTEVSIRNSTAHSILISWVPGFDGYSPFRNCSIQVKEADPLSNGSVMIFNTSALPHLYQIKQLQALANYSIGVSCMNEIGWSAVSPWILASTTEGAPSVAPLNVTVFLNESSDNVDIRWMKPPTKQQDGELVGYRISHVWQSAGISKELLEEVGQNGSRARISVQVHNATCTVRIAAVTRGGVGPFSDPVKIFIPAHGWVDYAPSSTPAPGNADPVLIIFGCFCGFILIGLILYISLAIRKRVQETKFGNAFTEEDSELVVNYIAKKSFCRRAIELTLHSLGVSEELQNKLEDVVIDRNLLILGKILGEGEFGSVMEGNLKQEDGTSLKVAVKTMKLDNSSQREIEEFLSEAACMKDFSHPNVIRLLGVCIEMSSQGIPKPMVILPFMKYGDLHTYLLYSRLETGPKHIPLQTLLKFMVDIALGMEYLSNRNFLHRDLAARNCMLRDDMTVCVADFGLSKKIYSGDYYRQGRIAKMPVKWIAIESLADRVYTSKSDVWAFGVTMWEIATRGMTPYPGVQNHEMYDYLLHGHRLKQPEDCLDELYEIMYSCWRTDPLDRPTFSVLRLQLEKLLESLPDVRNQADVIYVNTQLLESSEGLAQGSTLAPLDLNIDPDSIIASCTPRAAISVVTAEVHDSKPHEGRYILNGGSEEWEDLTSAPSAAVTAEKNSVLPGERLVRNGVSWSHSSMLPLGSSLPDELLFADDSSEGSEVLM
Protocol: as §1

[4] = biological target: T2, AXL (Homo sapiens, UniProt P30530); assay: HotSpot Kinase Assay, AXL
T2 sequence (P30530 26-894): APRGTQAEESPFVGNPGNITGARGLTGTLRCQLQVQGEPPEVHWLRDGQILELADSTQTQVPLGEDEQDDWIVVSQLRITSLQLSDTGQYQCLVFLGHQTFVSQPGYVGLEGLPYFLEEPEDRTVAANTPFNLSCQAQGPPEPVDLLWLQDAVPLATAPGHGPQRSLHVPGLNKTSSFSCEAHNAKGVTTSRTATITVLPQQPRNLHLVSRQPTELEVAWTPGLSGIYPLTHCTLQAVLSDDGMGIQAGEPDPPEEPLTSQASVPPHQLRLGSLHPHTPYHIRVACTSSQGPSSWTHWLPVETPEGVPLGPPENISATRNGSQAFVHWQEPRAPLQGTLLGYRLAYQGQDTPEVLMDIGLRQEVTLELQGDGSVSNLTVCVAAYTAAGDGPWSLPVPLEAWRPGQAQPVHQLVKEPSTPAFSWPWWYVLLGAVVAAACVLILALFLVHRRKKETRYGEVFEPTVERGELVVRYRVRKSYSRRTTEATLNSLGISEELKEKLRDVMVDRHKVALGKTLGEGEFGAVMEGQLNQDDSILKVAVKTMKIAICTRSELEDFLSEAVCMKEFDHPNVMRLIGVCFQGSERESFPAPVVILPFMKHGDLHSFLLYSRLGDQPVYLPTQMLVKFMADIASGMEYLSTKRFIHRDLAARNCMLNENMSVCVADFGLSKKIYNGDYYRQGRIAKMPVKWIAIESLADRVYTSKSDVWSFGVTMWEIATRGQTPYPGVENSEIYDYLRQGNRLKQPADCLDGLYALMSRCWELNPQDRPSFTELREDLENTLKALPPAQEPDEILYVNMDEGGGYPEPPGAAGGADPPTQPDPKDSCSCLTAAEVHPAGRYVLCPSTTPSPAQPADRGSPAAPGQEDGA

[5] = biological target: T3, TYRO3/SKY (Homo sapiens, UniProt Q06418); assay: HotSpot Kinase Assay, TYRO3/SKY
T3 sequence (Q06418 41-890): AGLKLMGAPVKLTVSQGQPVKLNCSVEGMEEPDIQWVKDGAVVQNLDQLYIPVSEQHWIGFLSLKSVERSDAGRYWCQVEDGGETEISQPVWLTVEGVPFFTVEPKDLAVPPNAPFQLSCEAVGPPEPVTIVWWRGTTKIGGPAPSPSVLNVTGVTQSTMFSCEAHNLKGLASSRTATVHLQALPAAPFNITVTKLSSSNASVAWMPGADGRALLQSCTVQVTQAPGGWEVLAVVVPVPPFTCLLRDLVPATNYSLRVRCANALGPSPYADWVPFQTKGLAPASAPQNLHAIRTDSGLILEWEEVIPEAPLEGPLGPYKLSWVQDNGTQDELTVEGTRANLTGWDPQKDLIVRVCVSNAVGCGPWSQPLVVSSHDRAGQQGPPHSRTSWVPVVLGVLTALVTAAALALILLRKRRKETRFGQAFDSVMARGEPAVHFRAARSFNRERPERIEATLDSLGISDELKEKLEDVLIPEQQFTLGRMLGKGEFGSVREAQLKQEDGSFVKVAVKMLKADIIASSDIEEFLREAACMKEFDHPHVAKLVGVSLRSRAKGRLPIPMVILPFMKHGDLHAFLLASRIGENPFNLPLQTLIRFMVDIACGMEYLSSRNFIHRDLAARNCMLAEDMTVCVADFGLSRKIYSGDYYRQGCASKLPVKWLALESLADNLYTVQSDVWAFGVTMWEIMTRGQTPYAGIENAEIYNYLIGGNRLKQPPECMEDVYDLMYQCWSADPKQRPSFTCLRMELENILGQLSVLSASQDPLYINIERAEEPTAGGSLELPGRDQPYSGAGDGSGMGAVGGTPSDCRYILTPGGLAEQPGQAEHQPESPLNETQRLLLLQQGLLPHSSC
Protocol: as §1

[6] = biological target: FMS (Homo sapiens, UniProt P07333); assay: HotSpot Kinase Assay, FMS
Protocol: as §1

[7] = biological target: KDR/VEGFR2 (Homo sapiens, UniProt P35968); assay: HotSpot Kinase Assay, KDR/VEGFR2
Protocol: as §1

[8] = biological target: DDR1 (Homo sapiens, UniProt Q08345); assay: HotSpot Kinase Assay, DDR1
Protocol: as §1

[9] = biological target: c-Kit (Homo sapiens, UniProt P10721); assay: HotSpot Kinase Assay, c-Kit
Protocol: as §1

[10] = biological target: LOK/STK10 (Homo sapiens, UniProt O94804); assay: HotSpot Kinase Assay, LOK/STK10
Protocol: as §1

c-Kit, sequence (P10721 26-976): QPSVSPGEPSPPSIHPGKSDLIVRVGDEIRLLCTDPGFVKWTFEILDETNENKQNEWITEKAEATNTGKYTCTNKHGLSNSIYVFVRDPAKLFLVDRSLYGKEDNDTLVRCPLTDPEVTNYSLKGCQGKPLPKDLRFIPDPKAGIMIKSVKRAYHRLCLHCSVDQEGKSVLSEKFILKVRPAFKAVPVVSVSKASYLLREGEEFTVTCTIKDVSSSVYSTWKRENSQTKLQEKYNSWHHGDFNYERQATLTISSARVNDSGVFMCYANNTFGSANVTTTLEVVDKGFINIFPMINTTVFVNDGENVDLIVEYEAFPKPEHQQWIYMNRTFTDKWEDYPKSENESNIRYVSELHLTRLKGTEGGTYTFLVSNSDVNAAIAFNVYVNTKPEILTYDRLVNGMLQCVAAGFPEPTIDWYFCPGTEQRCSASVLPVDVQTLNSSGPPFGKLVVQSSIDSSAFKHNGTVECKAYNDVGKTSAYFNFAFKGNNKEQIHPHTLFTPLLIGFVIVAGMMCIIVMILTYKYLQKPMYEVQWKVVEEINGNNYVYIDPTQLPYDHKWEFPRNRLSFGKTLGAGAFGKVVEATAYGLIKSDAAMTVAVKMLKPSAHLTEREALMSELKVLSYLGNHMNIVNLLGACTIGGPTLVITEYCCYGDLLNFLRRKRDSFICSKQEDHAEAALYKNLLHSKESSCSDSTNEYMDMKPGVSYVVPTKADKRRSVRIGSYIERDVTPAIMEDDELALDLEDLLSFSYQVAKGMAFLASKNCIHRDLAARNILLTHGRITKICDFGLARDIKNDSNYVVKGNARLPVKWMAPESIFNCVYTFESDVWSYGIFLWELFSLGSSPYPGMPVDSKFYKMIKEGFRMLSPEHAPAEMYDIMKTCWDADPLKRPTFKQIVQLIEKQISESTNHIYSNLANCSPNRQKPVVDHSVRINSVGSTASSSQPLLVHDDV
c-MET, sequence (P08581 25-1390): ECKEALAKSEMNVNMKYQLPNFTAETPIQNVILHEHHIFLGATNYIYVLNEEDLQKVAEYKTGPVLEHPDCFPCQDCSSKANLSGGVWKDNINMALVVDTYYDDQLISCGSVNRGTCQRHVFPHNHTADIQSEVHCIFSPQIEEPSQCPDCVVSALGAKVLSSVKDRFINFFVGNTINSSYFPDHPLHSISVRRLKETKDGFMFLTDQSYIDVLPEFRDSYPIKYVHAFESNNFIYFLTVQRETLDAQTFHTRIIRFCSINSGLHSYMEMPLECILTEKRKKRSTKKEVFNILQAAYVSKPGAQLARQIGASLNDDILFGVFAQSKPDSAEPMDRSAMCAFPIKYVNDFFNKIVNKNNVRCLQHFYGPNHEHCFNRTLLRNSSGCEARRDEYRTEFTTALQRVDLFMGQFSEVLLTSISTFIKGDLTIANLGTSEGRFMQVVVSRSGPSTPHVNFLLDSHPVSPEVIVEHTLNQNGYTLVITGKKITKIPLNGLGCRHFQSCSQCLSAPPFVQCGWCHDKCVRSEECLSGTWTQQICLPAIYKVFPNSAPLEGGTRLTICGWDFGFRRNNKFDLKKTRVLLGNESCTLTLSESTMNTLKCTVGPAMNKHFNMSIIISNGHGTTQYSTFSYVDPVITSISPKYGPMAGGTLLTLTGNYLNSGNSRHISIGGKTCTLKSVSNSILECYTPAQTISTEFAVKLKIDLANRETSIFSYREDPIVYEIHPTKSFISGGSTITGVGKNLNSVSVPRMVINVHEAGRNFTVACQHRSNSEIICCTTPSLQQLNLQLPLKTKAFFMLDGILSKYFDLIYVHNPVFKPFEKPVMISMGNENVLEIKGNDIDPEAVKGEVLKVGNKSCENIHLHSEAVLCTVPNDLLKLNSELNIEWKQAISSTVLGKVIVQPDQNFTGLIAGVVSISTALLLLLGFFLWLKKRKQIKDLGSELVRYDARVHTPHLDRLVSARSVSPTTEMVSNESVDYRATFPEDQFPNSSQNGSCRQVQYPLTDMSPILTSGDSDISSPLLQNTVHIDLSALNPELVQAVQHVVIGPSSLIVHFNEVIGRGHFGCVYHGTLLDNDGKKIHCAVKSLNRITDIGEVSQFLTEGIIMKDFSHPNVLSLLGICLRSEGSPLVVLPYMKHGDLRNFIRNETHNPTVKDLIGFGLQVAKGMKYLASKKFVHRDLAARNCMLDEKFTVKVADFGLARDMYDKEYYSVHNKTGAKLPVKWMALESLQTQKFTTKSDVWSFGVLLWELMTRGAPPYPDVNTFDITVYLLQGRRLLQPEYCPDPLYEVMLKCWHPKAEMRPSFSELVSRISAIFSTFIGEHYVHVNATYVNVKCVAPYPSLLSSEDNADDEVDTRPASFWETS
EPHA2, sequence (P29317 24-976): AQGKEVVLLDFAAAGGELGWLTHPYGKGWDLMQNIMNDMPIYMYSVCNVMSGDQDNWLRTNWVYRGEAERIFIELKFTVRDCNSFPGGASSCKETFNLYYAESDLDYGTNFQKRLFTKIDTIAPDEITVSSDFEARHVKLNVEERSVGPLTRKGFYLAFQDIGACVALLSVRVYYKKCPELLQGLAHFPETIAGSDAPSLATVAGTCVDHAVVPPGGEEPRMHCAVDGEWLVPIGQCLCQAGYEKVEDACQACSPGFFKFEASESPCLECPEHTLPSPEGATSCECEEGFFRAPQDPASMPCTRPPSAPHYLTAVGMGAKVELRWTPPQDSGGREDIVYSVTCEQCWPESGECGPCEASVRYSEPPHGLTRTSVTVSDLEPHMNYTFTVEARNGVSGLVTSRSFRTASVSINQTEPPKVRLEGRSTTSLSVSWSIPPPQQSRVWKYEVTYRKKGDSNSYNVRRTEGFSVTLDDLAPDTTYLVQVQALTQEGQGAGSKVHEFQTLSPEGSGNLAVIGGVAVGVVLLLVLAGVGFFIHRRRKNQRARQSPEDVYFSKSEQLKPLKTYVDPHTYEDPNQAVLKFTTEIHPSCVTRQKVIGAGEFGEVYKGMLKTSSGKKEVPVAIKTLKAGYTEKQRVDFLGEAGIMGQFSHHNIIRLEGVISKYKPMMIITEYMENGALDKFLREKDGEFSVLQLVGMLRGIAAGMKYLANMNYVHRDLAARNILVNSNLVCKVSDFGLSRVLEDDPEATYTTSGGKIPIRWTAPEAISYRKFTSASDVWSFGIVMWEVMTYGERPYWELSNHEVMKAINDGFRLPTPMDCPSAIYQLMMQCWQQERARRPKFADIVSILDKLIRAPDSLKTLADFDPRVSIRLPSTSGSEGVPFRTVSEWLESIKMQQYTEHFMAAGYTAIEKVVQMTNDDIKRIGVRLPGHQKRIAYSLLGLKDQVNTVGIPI
KDR/VEGFR2, sequence (P35968 20-1356): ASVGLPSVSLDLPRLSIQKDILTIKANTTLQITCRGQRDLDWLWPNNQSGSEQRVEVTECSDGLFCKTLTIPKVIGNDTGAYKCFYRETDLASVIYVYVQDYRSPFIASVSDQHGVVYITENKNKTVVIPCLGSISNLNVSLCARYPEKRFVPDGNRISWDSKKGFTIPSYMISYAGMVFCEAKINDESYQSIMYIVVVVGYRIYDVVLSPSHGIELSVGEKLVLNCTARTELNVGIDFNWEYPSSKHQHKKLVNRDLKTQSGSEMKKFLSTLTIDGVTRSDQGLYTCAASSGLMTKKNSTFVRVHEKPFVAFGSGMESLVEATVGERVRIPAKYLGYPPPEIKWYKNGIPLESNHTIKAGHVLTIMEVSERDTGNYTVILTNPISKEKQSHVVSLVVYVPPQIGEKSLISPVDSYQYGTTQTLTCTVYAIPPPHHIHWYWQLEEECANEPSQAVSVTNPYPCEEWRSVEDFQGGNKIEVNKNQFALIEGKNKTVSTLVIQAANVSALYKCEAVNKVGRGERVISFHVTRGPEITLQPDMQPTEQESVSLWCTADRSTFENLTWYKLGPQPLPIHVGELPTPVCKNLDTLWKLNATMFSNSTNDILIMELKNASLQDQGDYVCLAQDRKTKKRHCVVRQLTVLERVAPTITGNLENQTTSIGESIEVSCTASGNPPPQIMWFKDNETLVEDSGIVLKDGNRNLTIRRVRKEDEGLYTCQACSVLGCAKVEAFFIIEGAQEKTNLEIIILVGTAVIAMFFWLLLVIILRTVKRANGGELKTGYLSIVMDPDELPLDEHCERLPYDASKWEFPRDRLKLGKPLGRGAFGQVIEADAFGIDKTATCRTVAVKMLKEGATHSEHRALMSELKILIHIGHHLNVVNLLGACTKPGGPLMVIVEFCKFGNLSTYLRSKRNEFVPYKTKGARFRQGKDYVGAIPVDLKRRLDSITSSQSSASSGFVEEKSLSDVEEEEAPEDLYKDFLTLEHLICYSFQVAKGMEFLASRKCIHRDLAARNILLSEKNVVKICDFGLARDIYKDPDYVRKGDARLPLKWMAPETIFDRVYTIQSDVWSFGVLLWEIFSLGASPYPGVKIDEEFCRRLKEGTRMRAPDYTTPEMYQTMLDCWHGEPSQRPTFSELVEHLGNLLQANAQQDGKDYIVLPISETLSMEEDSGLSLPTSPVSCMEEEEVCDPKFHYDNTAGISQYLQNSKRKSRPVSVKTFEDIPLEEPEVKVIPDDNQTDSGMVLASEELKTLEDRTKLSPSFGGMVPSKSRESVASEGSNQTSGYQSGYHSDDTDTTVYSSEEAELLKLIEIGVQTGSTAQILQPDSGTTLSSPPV

COc1cc2c(Oc3ccc(NC(=O)C4(C(=O)Nc5ccc(F)cc5)CC4)cc3)ccnc2cc1OC(=O)N1CCN(C)C[C@H]1C [Compound 1-11, 4-(4-(1-((4-fluorophenyl)carbamoyl)cyclopropane-1-carboxamido)phenoxy)-6-methoxyquinolin-7-yl (R)-2,4-dimethylpiperazine-1-carboxylate]
pIC50 [1]: > 7.00 | pIC50 [2]: 6.00 to 7.00 | pIC50 [3]: > 7.00 | pIC50 [4]: > 7.00 | pIC50 [5]: 6.00 to 7.00 | pIC50 [6]: > 7.00 | pIC50 [7]: < 6.00 | pIC50 [8]: > 7.00 | pIC50 [9]: > 7.00 | pIC50 [10]: 6.00 to 7.00

COc1cc2c(Oc3ccc(NC(=O)C4(C(=O)Nc5ccc(F)cc5)CC4)cc3)ccnc2cc1OC(=O)N1CCN(C)C[C@@H]1C [Compound 1-12]
pIC50 [1]: > 7.00 | pIC50 [2]: 6.00 to 7.00 | pIC50 [3]: > 7.00 | pIC50 [4]: > 7.00 | pIC50 [5]: 6.00 to 7.00 | pIC50 [6]: 6.00 to 7.00 | pIC50 [7]: 6.00 to 7.00 | pIC50 [8]: > 7.00 | pIC50 [9]: > 7.00 | pIC50 [10]: 6.00 to 7.00

COc1cc2c(Oc3ccc(NC(=O)C4(C(=O)Nc5ccc(F)cc5)CC4)cc3)ccnc2cc1OC(=O)N1CCC(F)(F)CC1 [Compound 1-13]
pIC50 [1]: > 7.00 | pIC50 [2]: < 6.00 | pIC50 [3]: 6.00 to 7.00 | pIC50 [4]: 6.00 to 7.00 | pIC50 [5]: < 6.00 | pIC50 [6]: < 6.00 | pIC50 [7]: < 6.00 | pIC50 [8]: > 7.00 | pIC50 [9]: 6.00 to 7.00 | pIC50 [10]: < 6.00

COc1cc2c(Oc3ccc(NC(=O)C4(C(=O)Nc5ccc(F)cc5)CC4)cc3)ccnc2cc1OC(=O)N1CCCC1 [Compound 1-14]
pIC50 [1]: > 7.00 | pIC50 [2]: < 6.00 | pIC50 [3]: 6.00 to 7.00 | pIC50 [4]: 6.00 to 7.00 | pIC50 [5]: < 6.00 | pIC50 [6]: < 6.00 | pIC50 [7]: < 6.00 | pIC50 [8]: > 7.00 | pIC50 [9]: 6.00 to 7.00 | pIC50 [10]: < 6.00

COc1cc2c(Oc3ccc(NC(=O)C4(C(=O)Nc5ccc(F)cc5)CC4)cc3)ccnc2cc1OC(=O)N(C)C [Compound 1-15]
pIC50 [1]: 6.00 to 7.00 | pIC50 [2]: < 6.00 | pIC50 [3]: 6.00 to 7.00 | pIC50 [4]: 6.00 to 7.00 | pIC50 [5]: < 6.00 | pIC50 [6]: 6.00 to 7.00 | pIC50 [7]: < 6.00 | pIC50 [8]: > 7.00 | pIC50 [9]: 6.00 to 7.00 | pIC50 [10]: 6.00 to 7.00

COc1cc2c(Oc3ccc(NC(=O)C4(C(=O)Nc5ccc(F)cc5)CC4)cc3)ccnc2cc1OC(=O)N1Cc2cn(S(C)(=O)=O)nc2C1 [Compound 1-16]
pIC50 [1]: > 7.00 | pIC50 [2]: < 6.00 | pIC50 [3]: 6.00 to 7.00 | pIC50 [4]: 6.00 to 7.00 | pIC50 [5]: < 6.00 | pIC50 [6]: < 6.00 | pIC50 [7]: < 6.00 | pIC50 [8]: > 7.00 | pIC50 [9]: 6.00 to 7.00 | pIC50 [10]: < 6.00

COc1cc2c(Oc3ccc(NC(=O)C4(C(=O)Nc5ccc(F)cc5)CC4)cc3)ccnc2cc1OC(=O)N1CCOCC1 [Compound 1-17]
pIC50 [1]: > 7.00 | pIC50 [2]: 6.00 to 7.00 | pIC50 [3]: > 7.00 | pIC50 [4]: 6.00 to 7.00 | pIC50 [5]: < 6.00 | pIC50 [6]: 6.00 to 7.00 | pIC50 [7]: 6.00 to 7.00 | pIC50 [8]: > 7.00 | pIC50 [9]: > 7.00 | pIC50 [10]: 6.00 to 7.00

COc1cc2c(Oc3ccc(NC(=O)C4(C(=O)Nc5ccc(F)cc5)CC4)cc3)ccnc2cc1OC(=O)N1CCN(C)[C@H](C)C1 [Compound 2-2]
pIC50 [1]: > 7.00 | pIC50 [2]: 6.00 to 7.00 | pIC50 [3]: > 7.00 | pIC50 [4]: > 7.00 | pIC50 [5]: 6.00 to 7.00 | pIC50 [6]: > 7.00 | pIC50 [7]: 6.00 to 7.00 | pIC50 [8]: > 7.00 | pIC50 [9]: > 7.00 | pIC50 [10]: 6.00 to 7.00

COc1cc2c(Oc3ccc(NC(=O)C4(C(=O)Nc5ccc(F)cc5)CC4)cc3)ccnc2cc1OC(=O)N1CCN(C)[C@@H](C)C1 [Compound 2-3]
pIC50 [1]: > 7.00 | pIC50 [2]: 6.00 to 7.00 | pIC50 [3]: > 7.00 | pIC50 [4]: > 7.00 | pIC50 [5]: 6.00 to 7.00 | pIC50 [6]: > 7.00 | pIC50 [7]: 6.00 to 7.00 | pIC50 [8]: > 7.00 | pIC50 [9]: > 7.00 | pIC50 [10]: 6.00 to 7.00

COc1cc2c(Oc3ccc(NC(=O)C4(C(=O)Nc5ccc(F)cc5)CC4)cc3)ccnc2cc1OC(=O)N1CC[C@@H](O)C1 [Compound 2-4]
pIC50 [1]: > 7.00 | pIC50 [2]: 6.00 to 7.00 | pIC50 [3]: > 7.00 | pIC50 [4]: > 7.00 | pIC50 [5]: < 6.00 | pIC50 [6]: 6.00 to 7.00 | pIC50 [7]: < 6.00 | pIC50 [8]: > 7.00 | pIC50 [9]: > 7.00 | pIC50 [10]: 6.00 to 7.00

COc1cc2c(Oc3ccc(NC(=O)C4(C(=O)Nc5ccc(F)cc5)CC4)cc3)ccnc2cc1OC(=O)N1CC[C@H](O)C1 [Compound 2-5]
pIC50 [1]: > 7.00 | pIC50 [2]: 6.00 to 7.00 | pIC50 [3]: > 7.00 | pIC50 [4]: > 7.00 | pIC50 [5]: < 6.00 | pIC50 [6]: 6.00 to 7.00 | pIC50 [7]: < 6.00 | pIC50 [8]: > 7.00 | pIC50 [9]: > 7.00 | pIC50 [10]: 6.00 to 7.00

COc1cc2c(Oc3ccc(NC(=O)C4(C(=O)Nc5ccc(F)cc5)CC4)cc3)ccnc2cc1OC(=O)N1C[C@H]2C[C@@H]1CN2C [Compound 2-6]
pIC50 [1]: > 7.00 | pIC50 [2]: > 7.00 | pIC50 [3]: > 7.00 | pIC50 [4]: > 7.00 | pIC50 [5]: 6.00 to 7.00 | pIC50 [6]: > 7.00 | pIC50 [7]: 6.00 to 7.00 | pIC50 [8]: > 7.00 | pIC50 [9]: > 7.00 | pIC50 [10]: 6.00 to 7.00
